Assay results from article PMC8301602 (AIChE journal. American Institute of Chemical Engineers, 2020).
Read-outs that look alike come from different tables or passages of the source.

Experiments:
iLOV = iLOV (Arabidopsis thaliana, UniProt P93025, S394T/S409G/C426A/I452T/F470L/M475V); assay: fluorescence titration of apo protein, emission at […] nm; type: binding; conditions: PBS; noncooperative 1:1 fit, protein concentration fitted
EcFbFP = biological target: T1, EcFbFP (Bacillus subtilis, UniProt O34627, C62A); assay: as above; type: binding
T1 sequence (O34627 1-137 C62A limits assumed): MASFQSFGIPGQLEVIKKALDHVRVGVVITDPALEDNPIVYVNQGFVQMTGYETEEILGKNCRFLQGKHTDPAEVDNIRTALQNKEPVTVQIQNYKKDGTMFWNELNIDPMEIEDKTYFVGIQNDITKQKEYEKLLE

EcFbFP (B. subtilis) [1] = assay: SEC
EcFbFP (B. subtilis) [2] = assay: SEC; remark: listed apart in the source

iLOV, sequence (P93025 387-496 S394T/S409G/C426A/I452T/F470L/M475V limits assumed): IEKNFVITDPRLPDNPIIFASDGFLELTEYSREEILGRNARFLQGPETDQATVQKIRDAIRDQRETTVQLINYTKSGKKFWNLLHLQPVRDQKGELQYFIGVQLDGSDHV

| Compound | Kd (iLOV) [nM] | Kd (EcFbFP) [nM] | stoichiometry N (EcFbFP (B. subtilis) [1]) | stoichiometry N (EcFbFP (B. subtilis) [2]) |
| --- | --- | --- | --- | --- |
| Cc1cc2nc3c(=O)[nH]c(=O)nc-3n(C[C@H](O)[C@H](O)[C@H](O)COP(=O)(O)OP(=O)(O)OC[C@H]3O[C@@H](n4cnc5c(N)ncnc54)[C@H](O)[C@@H]3O)c2cc1C [FAD] | 180 ± 30 | 130 ± 20 |  |  |
| Cc1cc2nc3c(=O)[nH]c(=O)nc-3n(C[C@H](O)[C@H](O)[C@H](O)COP(=O)(O)O)c2cc1C [FMN] | 230 ± 20 | 180 ± 30 |  |  |
| Cc1cc2nc3c(=O)[nH]c(=O)nc-3n(C[C@H](O)[C@H](O)[C@H](O)CO)c2cc1C [riboflavin] | 890 ± 170 | 760 ± 150 |  |  |
| EcFbFP |  |  | 2 | 2 |
